Measured values reported in ChEMBL document CHEMBL1201862, “PubChem BioAssay data set” (2004).
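Step 1: Grow cells in 96-well plates. Step 2: Expose to compound for 48 hours at 5 concentrations. Step 3: Interpolate endpoints linearly; if unreached, use highest concentration. The concentration for 50% growth inhibition is given as GI50.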 Activity calls are given as the source filed them. Cut-off read from the data, not from the text of the source: active = GI50 up to about 1.1 µM and inactive = higher. Where a SMILES comes first, the peptide text is derived from it. [ ]: non-standard residue; d: D form. Hiv = CC(C)[C@H](O)C(=O)O

What was measured:
Assay in all cases: NCI-60 cell line screen, 48 h
ACHN = system: ACHN
SK-OV-3 = system: SK-OV-3
HOP-62 = system: HOP-62
TK-10 = system: TK-10
CAKI-1 = system: CAKI-1
NCI/ADR-RES = system: NCI/ADR-RES
NCI-H23 = system: NCI-H23
RPMI-8226 = system: RPMI-8226
SF-268 = system: SF-268
UACC-257 = system: UACC-257
MCF7 = system: MCF7
T47D = system: T47D
MDA-N = system: MDA-N
HCC 2998 = system: HCC 2998
HCT-15 = system: HCT-15
HL-60 = system: HL-60
SR = system: SR
MDA-MB-435 = system: MDA-MB-435
M14 = system: M14
KM12 = system: KM12
IGROV-1 = system: IGROV-1
OVCAR-4 = system: OVCAR-4
MOLT-4 = system: MOLT-4
SK-MEL-2 = system: SK-MEL-2
SF-295 = system: SF-295
A498 = system: A498
DU-145 = system: DU-145
SK-MEL-28 = system: SK-MEL-28
NCI-H522 = system: NCI-H522
Hs-578T = system: Hs-578T
HOP-92 = system: HOP-92
NCI-H226 = system: NCI-H226
EKVX = system: EKVX
PC-3 = system: PC-3
786-0 = system: 786-0
UO-31 = system: UO-31
SK-MEL-5 = system: SK-MEL-5
HCT-116 = system: HCT-116
Malme-3M = system: Malme-3M
OVCAR-5 = system: OVCAR-5
SN12C = system: SN12C
K562 = system: K562
A549 = system: A549
SF-539 = system: SF-539
RXF 393 = system: RXF 393
U-251 = system: U-251
LOX IMVI = system: LOX IMVI
HT-29 = system: HT-29
MDA-MB-231 = system: MDA-MB-231
NCI-H460 = system: NCI-H460
CCRF-CEM = system: CCRF-CEM
OVCAR-8 = system: OVCAR-8
SW-620 = system: SW-620
SNB-19 = system: SNB-19
OVCAR-3 = system: OVCAR-3
COLO 205 = system: COLO 205
UACC-62 = system: UACC-62
SNB-75 = system: SNB-75

## CCOC(=O)C(NC(=O)CC(C)C)(NC(C)C)C(F)(F)F (stereo unspecified)
ACHN
  GI50: > 100 µM (inactive)
SK-OV-3
  GI50: > 100 µM (inactive)
HOP-62
  GI50: > 100 µM (inactive)
TK-10
  GI50: > 100 µM (inactive)
CAKI-1
  GI50: > 100 µM (inactive)
NCI/ADR-RES
  GI50: > 100 µM (inactive)
NCI-H23
  GI50: > 100 µM (inactive)
RPMI-8226
  GI50: > 100 µM (inactive)
SF-268
  GI50: > 100 µM (inactive)
UACC-257
  GI50: > 100 µM (inactive)
MCF7
  GI50: > 100 µM (inactive)
T47D
  GI50: > 100 µM (inactive)
MDA-N
  GI50: > 100 µM (inactive)
HCC 2998
  GI50: > 100 µM (inactive)
HCT-15
  GI50: > 100 µM
HL-60
  GI50: > 100 µM (inactive)
SR
  GI50: > 100 µM (inactive)
MDA-MB-435
  GI50: > 100 µM (inactive)
M14
  GI50: > 100 µM (inactive)
KM12
  GI50: > 100 µM (inactive)
IGROV-1
  GI50: > 100 µM (inactive)
OVCAR-4
  GI50: > 100 µM (inactive)
MOLT-4
  GI50: > 100 µM (inactive)
SK-MEL-2
  GI50: > 100 µM (inactive)
SF-295
  GI50: > 100 µM (inactive)
A498
  GI50: > 100 µM (inactive)
DU-145
  GI50: > 100 µM (inactive)
SK-MEL-28
  GI50: > 100 µM (inactive)
NCI-H522
  GI50: > 100 µM (inactive)
Hs-578T
  GI50: > 100 µM (inactive)
HOP-92
  GI50: > 100 µM (inactive)
NCI-H226
  GI50: > 100 µM (inactive)
EKVX
  GI50: > 100 µM (inactive)
PC-3
  GI50: > 100 µM (inactive)
786-0
  GI50: > 100 µM (inactive)
UO-31
  GI50: > 100 µM (inactive)
SK-MEL-5
  GI50: > 100 µM (inactive)
HCT-116
  GI50: > 100 µM (inactive)
Malme-3M
  GI50: > 100 µM (inactive)
OVCAR-5
  GI50: > 100 µM (inactive)
SN12C
  GI50: > 100 µM (inactive)
K562
  GI50: > 100 µM (inactive)
A549
  GI50: > 100 µM (inactive)
SF-539
  GI50: > 100 µM (inactive)
RXF 393
  GI50: > 100 µM (inactive)
U-251
  GI50: > 100 µM (inactive)
LOX IMVI
  GI50: > 100 µM (inactive)
HT-29
  GI50: > 100 µM (inactive)
MDA-MB-231
  GI50: > 100 µM (inactive)
NCI-H460
  GI50: > 100 µM (inactive)
CCRF-CEM
  GI50: > 100 µM (inactive)
OVCAR-8
  GI50: > 100 µM (inactive)
SW-620
  GI50: > 100 µM (inactive)
SNB-19
  GI50: > 100 µM (inactive)
OVCAR-3
  GI50: > 100 µM (inactive)
COLO 205
  GI50: > 100 µM (inactive)

## CCOC(=O)c1sc2[n+](c1C)C(=O)/C(=C/c1ccc([N+](=O)[O-])cc1)S2
ACHN
  GI50: 30.6 µM (inactive)
SK-OV-3
  GI50: 23.8 µM (inactive)
HOP-62
  GI50: 20.7 µM (inactive)
TK-10
  GI50: 20.6 µM (inactive)
CAKI-1
  GI50: 15.1 µM (inactive)
NCI/ADR-RES
  GI50: 13.8 µM (inactive)
NCI-H23
  GI50: 16.1 µM (inactive)
RPMI-8226
  GI50: 10.4 µM (inactive)
SF-268
  GI50: 12.9 µM (inactive)
UACC-62
  GI50: 17.9 µM (inactive)
UACC-257
  GI50: 28.1 µM (inactive)
MCF7
  GI50: 21.2 µM (inactive)
T47D
  GI50: 25.5 µM (inactive)
MDA-N
  GI50: 27.7 µM (inactive)
HCC 2998
  GI50: 17.2 µM (inactive)
HL-60
  GI50: 75.7 µM (inactive)
SR
  GI50: 24.3 µM (inactive)
MDA-MB-435
  GI50: 18 µM (inactive)
M14
  GI50: 31.6 µM (inactive)
KM12
  GI50: 18.4 µM (inactive)
OVCAR-4
  GI50: 56.5 µM (inactive)
MOLT-4
  GI50: 22.2 µM (inactive)
SK-MEL-2
  GI50: 20.7 µM (inactive)
SF-295
  GI50: 18.5 µM (inactive)
A498
  GI50: > 100 µM (inactive)
DU-145
  GI50: 31.3 µM (inactive)
SNB-75
  GI50: 20.5 µM (inactive)
SK-MEL-28
  GI50: 27.4 µM (inactive)
Hs-578T
  GI50: 23.2 µM (inactive)
HOP-92
  GI50: > 100 µM (inactive)
NCI-H226
  GI50: 28.3 µM (inactive)
PC-3
  GI50: 18.9 µM (inactive)
786-0
  GI50: 22.2 µM (inactive)
UO-31
  GI50: 15 µM (inactive)
SK-MEL-5
  GI50: 38.8 µM (inactive)
HCT-116
  GI50: 20.8 µM (inactive)
OVCAR-5
  GI50: 31.7 µM (inactive)
SN12C
  GI50: 36.6 µM (inactive)
K562
  GI50: 20.9 µM (inactive)
A549
  GI50: 23.5 µM (inactive)
SF-539
  GI50: 21.2 µM (inactive)
RXF 393
  GI50: 29.8 µM (inactive)
U-251
  GI50: 17.3 µM (inactive)
LOX IMVI
  GI50: 25.2 µM (inactive)
HT-29
  GI50: 16.8 µM (inactive)
MDA-MB-231
  GI50: 46.6 µM (inactive)
NCI-H460
  GI50: 19.7 µM (inactive)
CCRF-CEM
  GI50: > 100 µM (inactive)
OVCAR-8
  GI50: 19.5 µM (inactive)
SW-620
  GI50: 28.5 µM (inactive)
SNB-19
  GI50: 45.2 µM (inactive)
OVCAR-3
  GI50: 9.08 µM (inactive)
COLO 205
  GI50: 30.7 µM (inactive)

## CC(C)[C@@H]1OC(=O)[C@@H](C)NC(=O)[C@@H]2CCCN2C1=O (cyclo([Hiv]-Pro-[dA]))
ACHN
  GI50: > 100 µM (inactive)
SK-OV-3
  GI50: > 100 µM (inactive)
HOP-62
  GI50: > 100 µM (inactive)
TK-10
  GI50: > 100 µM (inactive)
CAKI-1
  GI50: > 100 µM (inactive)
NCI/ADR-RES
  GI50: > 100 µM (inactive)
NCI-H23
  GI50: > 100 µM (inactive)
SF-268
  GI50: > 100 µM (inactive)
UACC-62
  GI50: > 100 µM (inactive)
UACC-257
  GI50: > 100 µM (inactive)
MCF7
  GI50: > 100 µM (inactive)
T47D
  GI50: > 100 µM (inactive)
MDA-N
  GI50: > 100 µM (inactive)
HCC 2998
  GI50: > 100 µM (inactive)
HCT-15
  GI50: > 100 µM
HL-60
  GI50: > 100 µM (inactive)
SR
  GI50: > 100 µM (inactive)
MDA-MB-435
  GI50: > 100 µM (inactive)
M14
  GI50: > 100 µM (inactive)
KM12
  GI50: > 100 µM (inactive)
IGROV-1
  GI50: > 100 µM (inactive)
OVCAR-4
  GI50: > 100 µM (inactive)
MOLT-4
  GI50: > 100 µM (inactive)
SK-MEL-2
  GI50: > 100 µM (inactive)
SF-295
  GI50: > 100 µM (inactive)
A498
  GI50: > 100 µM (inactive)
DU-145
  GI50: > 100 µM (inactive)
SK-MEL-28
  GI50: > 100 µM (inactive)
Hs-578T
  GI50: > 100 µM (inactive)
HOP-92
  GI50: > 100 µM (inactive)
NCI-H226
  GI50: > 100 µM (inactive)
EKVX
  GI50: > 100 µM (inactive)
PC-3
  GI50: > 100 µM (inactive)
786-0
  GI50: > 100 µM (inactive)
SK-MEL-5
  GI50: > 100 µM (inactive)
HCT-116
  GI50: > 100 µM (inactive)
Malme-3M
  GI50: > 100 µM (inactive)
OVCAR-5
  GI50: > 100 µM (inactive)
SN12C
  GI50: > 100 µM (inactive)
A549
  GI50: > 100 µM (inactive)
SF-539
  GI50: > 100 µM (inactive)
RXF 393
  GI50: > 100 µM (inactive)
LOX IMVI
  GI50: > 100 µM (inactive)
HT-29
  GI50: > 100 µM (inactive)
MDA-MB-231
  GI50: > 100 µM (inactive)
NCI-H460
  GI50: > 100 µM (inactive)
CCRF-CEM
  GI50: > 100 µM (inactive)
OVCAR-8
  GI50: > 100 µM (inactive)
SW-620
  GI50: > 100 µM (inactive)
SNB-19
  GI50: > 100 µM (inactive)
OVCAR-3
  GI50: > 100 µM (inactive)
COLO 205
  GI50: > 100 µM (inactive)
